# Measured values from ChEMBL document CHEMBL4177650, “Synthesis and biological evolution of hydrazones derived from 4-(trifluoromethyl)benzohydrazide” (Bioorg Med Chem Lett, 2017).
# Activity calls are given as the source filed them. The calls are words filed in the database; no cut-off is given here.
# Test system: HepG2
# Assay: Cytostatic activity against human HepG2 cells incubated overnight followed by compound wash measured after 72 hrs by MTT assay
# Assay type: ADME, cell-based
# Settings: HepG2, 72 h
row,Structure (SMILES),IC50 [µM]
1,CC12CCC(C/C1=N\NC(=O)c1ccc(C(F)(F)F)cc1)C2(C)C (stereo unspecified),> 100

# Test system: Klebsiella pneumoniae
# Assay: Antibacterial activity against gram-negative Klebsiella pneumoniae D 11750/08 after 24 to 48 hrs by microdilution broth method
# Assay type: functional, organism-based
# Settings: not given
row,Structure (SMILES),Activity
1,O=C(N/N=C/c1ccc([N+](=O)[O-])cc1)c1ccc(C(F)(F)F)cc1,inactive
2,O=C(N/N=C/c1cccc(O)c1)c1ccc(C(F)(F)F)cc1,inactive

# Test system: Mycobacterium avium
# Assay: Antimycobacterial activity against Mycobacterium avium 330/88 after 14 days by micromethod
# Assay type: functional
# Settings: 330/88, 336 h
row,Structure (SMILES),MIC [µM]
1,O=C(N/N=C/c1ccc([N+](=O)[O-])cc1)c1ccc(C(F)(F)F)cc1,> 250
2,O=C(N/N=C/c1cccc(O)c1)c1ccc(C(F)(F)F)cc1,250
3,CC12CCC(C/C1=N\NC(=O)c1ccc(C(F)(F)F)cc1)C2(C)C (stereo unspecified),> 250

# Test system: not listed separately
# Assay: Selectivity index, ratio of IC50 for human HepG2 cells to MIC for Mycobacterium tuberculosis H37Rv 331/88
# Assay type: toxicity
# Settings: read-out: Selectivity Index
row,Structure (SMILES),selectivity ratio
1,CC12CCC(C/C1=N\NC(=O)c1ccc(C(F)(F)F)cc1)C2(C)C (stereo unspecified),> 25

# Test system: Aspergillus fumigatus
# Assay: Antifungal activity against Aspergillus fumigatus 231 after 24 to 48 hrs by microdilution broth method
# Assay type: functional, organism-based
# Settings: not given
row,Structure (SMILES),Activity
1,O=C(N/N=C/c1ccc([N+](=O)[O-])cc1)c1ccc(C(F)(F)F)cc1,inactive
2,O=C(N/N=C/c1cccc(O)c1)c1ccc(C(F)(F)F)cc1,inactive

# Test system: Candida albicans
# Assay: Antifungal activity against Candida albicans ATCC 44859 after 24 to 48 hrs by microdilution broth method
# Assay type: functional, organism-based
# Settings: not given
row,Structure (SMILES),Activity
1,O=C(N/N=C/c1ccc([N+](=O)[O-])cc1)c1ccc(C(F)(F)F)cc1,inactive
2,O=C(N/N=C/c1cccc(O)c1)c1ccc(C(F)(F)F)cc1,inactive

# Test system: Lichtheimia corymbifera
# Assay: Antifungal activity against Absidia corymbifera 272 after 24 to 48 hrs by microdilution broth method
# Assay type: functional, organism-based
# Settings: not given
row,Structure (SMILES),Activity
1,O=C(N/N=C/c1ccc([N+](=O)[O-])cc1)c1ccc(C(F)(F)F)cc1,inactive
2,O=C(N/N=C/c1cccc(O)c1)c1ccc(C(F)(F)F)cc1,inactive

# Test system: Mycobacterium kansasii
# Assay: Antimycobacterial activity against Mycobacterium kansasii 6509/80 after 21 days by micromethod
# Assay type: functional
# Settings: 6509/80, 504 h
row,Structure (SMILES),MIC [µM]
1,O=C(N/N=C/c1ccc([N+](=O)[O-])cc1)c1ccc(C(F)(F)F)cc1,62.5
2,O=C(N/N=C/c1cccc(O)c1)c1ccc(C(F)(F)F)cc1,250
3,CC12CCC(C/C1=N\NC(=O)c1ccc(C(F)(F)F)cc1)C2(C)C (stereo unspecified),> 250

# Test system: HepG2
# Assay: Cytotoxicity against human HepG2 cells after overnight incubation by MTT assay
# Assay type: cell-based
# Settings: not given
row,Structure (SMILES),IC50 [µM]
1,CC12CCC(C/C1=N\NC(=O)c1ccc(C(F)(F)F)cc1)C2(C)C (stereo unspecified),> 100

# Test system: Mycobacterium kansasii
# Assay: Antimycobacterial activity against Mycobacterium kansasii 6509/80 after 7 days by micromethod
# Assay type: functional
# Settings: 6509/80, 168 h
row,Structure (SMILES),MIC [µM]
1,O=C(N/N=C/c1ccc([N+](=O)[O-])cc1)c1ccc(C(F)(F)F)cc1,32
2,O=C(N/N=C/c1cccc(O)c1)c1ccc(C(F)(F)F)cc1,62.5
3,CC12CCC(C/C1=N\NC(=O)c1ccc(C(F)(F)F)cc1)C2(C)C (stereo unspecified),> 250

# Test system: Pseudomonas aeruginosa
# Assay: Antibacterial activity against gram-negative Pseudomonas aeruginosa CCM 1961 after 48 hrs by microdilution broth method
# Assay type: functional, organism-based
# Settings: not given
row,Structure (SMILES),Activity
1,O=C(N/N=C/c1ccc([N+](=O)[O-])cc1)c1ccc(C(F)(F)F)cc1,inactive
2,O=C(N/N=C/c1cccc(O)c1)c1ccc(C(F)(F)F)cc1,inactive

# Test system: Mycobacterium kansasii
# Assay: Antimycobacterial activity against Mycobacterium kansasii 6509/96 after 21 days by micromethod
# Assay type: functional
# Settings: 6509/96, 504 h
row,Structure (SMILES),MIC [µM]
1,O=C(N/N=C/c1ccc([N+](=O)[O-])cc1)c1ccc(C(F)(F)F)cc1,> 250
2,O=C(N/N=C/c1cccc(O)c1)c1ccc(C(F)(F)F)cc1,500
3,CC12CCC(C/C1=N\NC(=O)c1ccc(C(F)(F)F)cc1)C2(C)C (stereo unspecified),> 250

# Test system: Mycobacterium tuberculosis
# Assay: Antimycobacterial activity against Mycobacterium tuberculosis H37Rv 331/88 after 14 days by micromethod
# Assay type: functional
# Settings: H37Rv 331/88, 336 h
row,Structure (SMILES),MIC [µM]
1,O=C(N/N=C/c1ccc([N+](=O)[O-])cc1)c1ccc(C(F)(F)F)cc1,125
2,O=C(N/N=C/c1cccc(O)c1)c1ccc(C(F)(F)F)cc1,250
3,CC12CCC(C/C1=N\NC(=O)c1ccc(C(F)(F)F)cc1)C2(C)C (stereo unspecified),4

# Test system: Mycobacterium kansasii
# Assay: Antimycobacterial activity against Mycobacterium kansasii 6509/96 after 14 days by micromethod
# Assay type: functional
# Settings: 6509/96, 336 h
row,Structure (SMILES),MIC [µM]
1,O=C(N/N=C/c1ccc([N+](=O)[O-])cc1)c1ccc(C(F)(F)F)cc1,> 250
2,O=C(N/N=C/c1cccc(O)c1)c1ccc(C(F)(F)F)cc1,500
3,CC12CCC(C/C1=N\NC(=O)c1ccc(C(F)(F)F)cc1)C2(C)C (stereo unspecified),> 250

# Test system: Mycobacterium kansasii
# Assay: Antimycobacterial activity against Mycobacterium kansasii 6509/80 after 14 days by micromethod
# Assay type: functional
# Settings: 6509/80, 336 h
row,Structure (SMILES),MIC [µM]
1,O=C(N/N=C/c1ccc([N+](=O)[O-])cc1)c1ccc(C(F)(F)F)cc1,62.5
2,O=C(N/N=C/c1cccc(O)c1)c1ccc(C(F)(F)F)cc1,125
3,CC12CCC(C/C1=N\NC(=O)c1ccc(C(F)(F)F)cc1)C2(C)C (stereo unspecified),> 250

# Test system: MONO-MAC-6
# Assay: Cytotoxicity against human MONO-MAC-6 cells after overnight incubation by MTT assay
# Assay type: functional, cell-based
# Settings: not given
row,Structure (SMILES),IC50 [µM]
1,CC12CCC(C/C1=N\NC(=O)c1ccc(C(F)(F)F)cc1)C2(C)C (stereo unspecified),> 100

# Test system: Mycobacterium avium
# Assay: Antimycobacterial activity against Mycobacterium avium 330/88 after 21 days by micromethod
# Assay type: functional
# Settings: 330/88, 504 h
row,Structure (SMILES),MIC [µM]
1,O=C(N/N=C/c1ccc([N+](=O)[O-])cc1)c1ccc(C(F)(F)F)cc1,> 250
2,O=C(N/N=C/c1cccc(O)c1)c1ccc(C(F)(F)F)cc1,250
3,CC12CCC(C/C1=N\NC(=O)c1ccc(C(F)(F)F)cc1)C2(C)C (stereo unspecified),> 250

# Test system: not listed separately
# Assay: Solubility of the compound in Mueller-Hinton broth
# Assay type: physicochemical
# Settings: not given
row,Structure (SMILES),solubility
1,CC12CCC(C/C1=N\NC(=O)c1ccc(C(F)(F)F)cc1)C2(C)C (stereo unspecified),Insoluble

# Test system: Klebsiella pneumoniae
# Assay: Antibacterial activity against extended spectrum beta-lactamase-positive Klebsiella pneumoniae J 14368/08 after 24 to 48 hrs by microdilution broth method
# Assay type: functional, organism-based
# Settings: not given
row,Structure (SMILES),Activity
1,O=C(N/N=C/c1ccc([N+](=O)[O-])cc1)c1ccc(C(F)(F)F)cc1,inactive
2,O=C(N/N=C/c1cccc(O)c1)c1ccc(C(F)(F)F)cc1,inactive

# Test system: MONO-MAC-6
# Assay: Cytostatic activity against human MONO-MAC-6 cells incubated overnight followed by compound wash measured after 72 hrs by MTT assay
# Assay type: ADME, cell-based
# Settings: MONO-MAC-6, 72 h
row,Structure (SMILES),IC50 [µM]
1,CC12CCC(C/C1=N\NC(=O)c1ccc(C(F)(F)F)cc1)C2(C)C (stereo unspecified),> 100

# Test system: Trichosporon asahii
# Assay: Antifungal activity against Trichosporon asahii 1188 after 24 to 48 hrs by microdilution broth method
# Assay type: functional, organism-based
# Settings: not given
row,Structure (SMILES),Activity
1,O=C(N/N=C/c1ccc([N+](=O)[O-])cc1)c1ccc(C(F)(F)F)cc1,inactive
2,O=C(N/N=C/c1cccc(O)c1)c1ccc(C(F)(F)F)cc1,inactive

# Test system: not listed separately
# Assay: Cytotoxicity against mouse bone marrow macrophages after overnight incubation by MTT assay
# Settings: BMDM
row,Structure (SMILES),IC50 [µM]
1,CC12CCC(C/C1=N\NC(=O)c1ccc(C(F)(F)F)cc1)C2(C)C (stereo unspecified),> 100

# Test system: Mycobacterium tuberculosis
# Assay: Antimycobacterial activity against Mycobacterium tuberculosis H37Rv 331/88 after 21 days by micromethod
# Assay type: functional
# Settings: H37Rv 331/88, 504 h
row,Structure (SMILES),MIC [µM]
1,O=C(N/N=C/c1ccc([N+](=O)[O-])cc1)c1ccc(C(F)(F)F)cc1,> 250
2,O=C(N/N=C/c1cccc(O)c1)c1ccc(C(F)(F)F)cc1,250
3,CC12CCC(C/C1=N\NC(=O)c1ccc(C(F)(F)F)cc1)C2(C)C (stereo unspecified),4

# Test system: Mycobacterium kansasii
# Assay: Antimycobacterial activity against Mycobacterium kansasii 6509/96 after 7 days by micromethod
# Assay type: functional
# Settings: 6509/96, 168 h
row,Structure (SMILES),MIC [µM]
1,O=C(N/N=C/c1ccc([N+](=O)[O-])cc1)c1ccc(C(F)(F)F)cc1,250
2,O=C(N/N=C/c1cccc(O)c1)c1ccc(C(F)(F)F)cc1,250
3,CC12CCC(C/C1=N\NC(=O)c1ccc(C(F)(F)F)cc1)C2(C)C (stereo unspecified),> 250
